Measured values taken from patent publication US7507749B2, “Antitumor agents” (priority 2001, dated 2009).

Test system: mammary adenocarcinoma-17/Adr
Assay: Test E: R-enantiomer of compound 22b and compound 22a against early stage mammary adenocarcinoma-17/Adr
Format: in vivo
Description: Then, P.B.S. was added and the pH adjusted to 7 with HCl. A volume of 0.2 ml per injection was administered to animals intravenously. […] Then, P.B.S. was added and the pH was adjusted to 7 with HCl. A volume of 0.2 ml per injection was administered to animals intravenously.

[1] = Cage 6, IV 83 mg/kg/inj qd 1-4, total 332 mg/kg
[2] = Cage 7, IV 55 mg/kg/inj qd 1-4, total 220 mg/kg
[3] = Cage 7, IV 55 mg/kg/inj qd 1-4, total 220 mg/kg, listed as R-enantiomer of compound 22b
[4] = Cage 8 (one mouse), IV single bolus 124.5 mg/kg day 1

C[C@@H](Oc1ccc(Oc2ccc3ccc(Cl)cc3n2)cc1)C(=O)O [Compound R-22b, (R) 2-[4-(7-chloroquinolin-2-yloxy)phenoxy]propanoic acid]
Neuromuscular toxicity (Cage 6, IV 83 mg/kg/inj qd 1-4): neuromuscular toxicity was not produced
% Body Wt Loss at Nadir [1]: −17.5%
% T/C mass [1]: toxic
Activity Rating [1]: toxic
Cause of death [1]: GI-epithelial damage
Day of Nadir [1]: 6 days
Drug Deaths [1]: 5/5
Median Tumor Mass on day 9 (Range) [1]: toxic
Tumor Free day-23 [1]: 0/5
Drug Deaths (Cage 6, IV 83 mg/kg/inj qd 1-4, total 332 mg/kg, listed as R-enantiomer of compound 22b): killing all of the 5 mice
% Body Wt Loss at Nadir [2]: −23.4%
% T/C mass [2]: 0%
Activity Rating [2]: ++++ (>2.8)
Cause of death [2]: GI-epithelial damage (diarrhea) complicated with marrow toxicity
Day of Nadir [2]: 9 days
Day of full recovery of body weight [2]: 14 days
Day tumors reached 1000 mg (range) [2]: 22 (18-23) day
Drug Deaths [2]: 1/5
Growth Delay [2]: 13 days
Log Kill [2]: 3.3
Median Tumor Mass on day 9 (Range) [2]: 0 (all zeros) mg
Tumor Free day-23 [2]: 0/5
% Body Wt Loss at Nadir [3]: −23.4%
% T/C mass [3]: 0%
% Body Wt Loss at Nadir [4]: 0%
Activity Rating [4]: + (0.7-1.2)
Day of Nadir [4]: 9 days
Drug Deaths [4]: 0/1
Growth Delay [4]: 3 days
Log Kill [4]: 0.8
Median Tumor Mass on day 9 (Range) [4]: 340 (one mouse) mg
Neuromuscular toxicity [4]: no neuromuscular toxicity
Tumor Free day-23 [4]: 0/1
% T/C mass (Cage 8 (one mouse), IV single bolus 124.5 mg/kg day 1, 124.5 mg/kg): 35%
% T/C mass (Cage 8 (one mouse), IV single bolus 124.5 mg/kg day 1, listed as R-enantiomer of compound 22b, 124.5 mg/kg): 35%
